The values below come from patent US4965280A, “Antifungal carbinols” (E. I. Du Pont de Nemours and Company, priority 1989, dated 1990).

The MIC is the least concentration at which growth counts as inhibited.

The test system of assay [1] is Rhizoctonia solani. Nature of the assay: Example K cotton blight. It is filed as in vivo. The conditions noted are these: 336 h, 5 kg/ha, read-out: disease control rating, Ex. K. On the procedure: […] Seeds and soil were then inoculated with a mixture of sand, cereal and mycelium of the fungus Rhizoctonia solani, causal agent of cotton blight, and incubated in a growth chamber at 30° C. for 14 days. Disease ratings were then made.

Assay [2] deals with Candida albicans ATCC 11651. In words: In vivo systemic Candida infection in mice, primary assay. On the set-up: species or system Candida albicans; CF-1 female mice. Particulars: Candida albicans, 150 mg/kg per day, read-out: % Survival. Summed up:
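CF-1 female mice (20 g, 10 per group) were infected IV with 0.2 ml of 1×10^7/ml C. albicans ATCC 11651, then given test compound subcutaneously at 50 or 150 mg/kg/day at 1 and 6 h post-infection and once daily for three more days. Survival was followed for 21 days against infected untreated mice; ≥70% protection at 14 days was scored active.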

The test system of assay [3] is Rhizoctonia solani. Nature of the assay: Example F rice sheath blight. It is filed as in vivo. The conditions noted are these: Rhizoctonia solani, 144 h, read-out: disease control rating, Ex. F. Summed up:
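Foliar run-off spray, rice seedlings: compound at 100 or 20 ppm in aqueous 250 ppm polyhydric alcohol ester surfactant, acetone 6% v/v final.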

The test system of assay [4] is Candida albicans ATCC 11651. Nature of the assay: In vitro antifungal MIC, microtiter broth dilution. The conditions noted are these: Candida albicans, ATCC11651, 24 h, read-out: MIC values, C. albicans, 30°, 24 hours.
Description: In vitro activity (Table 5) is expressed in terms of the minimal inhibitory concentration (MIC) of the test compound which inhibits the growth of yeasts and fungi.
The target organisms, Candida albicans ATCC 11651 and Aspergillus fumigatus ATCC 28214 are standardized, [V. Bezjak, J. Clinical Micro., 21 509-512 (1984)], to a concentration of 10^7 organisms/ml and maintained at -70° until use. Test compounds are solubilized in dimethyl sulfoxide (DMSO) and diluted in Eagle's Minimum Essential Medium (EMEM) broth to achieve a final concentration of 200 μg/ml. Stock solutions of standard antifungal agents are stored at -70° and diluted in EMEM as required.
The in vitro assay utilizes a microtiter broth dilution technique [L. Polonelli and G. Morace, Mycopathologia, 86, 21-28 (1984)] and C. […] The appropriate wells are inoculated with the required organism (C. albicans at 1×10^4 organisms/ml and A. fumigatus at 5×10^5 organisms/ml) and the assay incubated at 30° for 24 hours.
The subject of assay [5] is Pyricularia oryzae. Nature of the assay: whole plant or invertebrate. Format: in vivo. Particulars: Pyricularia oryzae, 120 h; for pest or weed control at 20 ppm: read-out: disease control rating, Ex. E, 20 PPM; for pest or weed control at 100 ppm: read-out: disease control rating, Ex. E, 100 PPM.
Assay [6] relates to Botrytis cinerea. In words: Example C bean grey mold. Format: in vivo. The conditions noted are these: Botrytis cinerea, 24 h, read-out: disease control rating, Ex. C. Summed up: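 Spray rates: 100 and 20 ppm. Vehicle: purified water with 6% acetone by final volume plus 250 ppm TREM 014 (polyhydric alcohol esters). Host plants, broad bean seedlings, were wetted until run-off.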

The test system of assay [7] is Pythium aphanadermatum. In words: Example J cucumber damping off. Format: in vivo. The conditions noted are these: Pythium, 336 h; 5 kg/ha; read-out: disease control rating, Ex. J. Summed up:
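Seeds and soil were inoculated with a mix of sand, cereal and Pythium aphanadermatum mycelium, the fungus responsible for cucumber damping off. They were kept in a growth chamber at 30° C. for 14 days, and disease was then rated to assess control.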

Assay [8] has as its system Venturia inaequalis. In words: Example A apple scab. Particulars: read-out: disease control rating, Ex. A. Format: in vivo. Summed up: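 Spray application to run-off on apple seedlings; compound at 100 or 20 ppm in water with 250 ppm TREM 014 (polyhydric alcohol esters) and 6% acetone of final volume.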
For assay [9], the system named is Puccinia recondita. Nature of the assay: Example G wheat leaf rust. Format: in vivo. The conditions noted are these: read-out: disease control rating, Ex. G.
For assay [10], the system named is Cercosporidium personatum. In words: Example B Peanut Late Leafspot. It is filed as in vivo. Particulars: Nothopassalora personata, read-out: disease control rating, Ex. B. Summed up: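 Spray suspensions at 100 or 20 ppm, prepared from acetone solutions (acetone 6% of final volume) in water carrying 250 ppm of a polyhydric alcohol ester surfactant, were applied to peanut seedlings until run-off.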

The test system of assay [11] is Plasmorpara viticola. In words: Example I grape downy mildew. It is filed as in vivo. Particulars: read-out: disease control rating, Ex. I. The method, boiled down:
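First, each compound is taken up in acetone amounting to 6% of the final volume. It is then suspended in purified water containing 250 ppm of the polyhydric alcohol ester surfactant TREM 014, at 100 or 20 ppm. Finally, the suspension is sprayed onto grape seedlings until run-off.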

Assay [12] has as its system Sclerotium rolfsii. In words: Example M southern blight. It is filed as in vivo. The conditions noted are these: Agroathelia rolfsii, 336 h; 5 kg/ha; read-out: disease control rating, Ex. M. On the procedure: […] Seeds and soil were then inoculated with a mixture of sand, cereal and mycelium of the fungus Sclerotium rolfsii, causal agent of sourthern blight, and incubated in a growth chamber at 30° C. for 14 days. Disease ratings were then made.

In assay [13] the test system is Aspergillus fumigatus ATCC 28214. Nature of the assay: In vitro antifungal MIC, microtiter broth dilution. The conditions noted are these: Aspergillus fumigatus, ATCC28214, 24 h, read-out: MIC values, A. fumigatus, 30°, 24 hours. On the technique in general: Broth dilution looks for growth in wells or tubes with falling amounts of substance.
The test system of assay [14] is Fusarium oxysporum f. sp. cucumerinum. In words: Example L cucumber wilt. Format: in vivo. The conditions noted are these: 336 h, 5 kg/ha, read-out: disease control rating, Ex. L. On the procedure: […] Seeds and soil were then inoculated with a mixture of sand, cereal and mycelium of the fungus Fusarium oxysporum f. sp. cucumerinum, causal agent of cucumber wilt, and incubated in a growth chamber at 30° C. for 14 days. Disease ratings were then made.

The test system of assay [15] is Erysiphe graminis f. sp. tritici. In words: Example D wheat powdery mildew. The conditions noted are these: Blumeria graminis, 144 h, read-out: disease control rating, Ex. D. It is filed as in vivo. Summed up:
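Seedling wheat was treated by spraying to run-off; formulation used acetone as co-solvent (6% final) and TREM 014 surfactant at 250 ppm, with compound at 100 or 20 ppm.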

The test system of assay [16] is Phytophthora infestans. Nature of the assay: whole plant or invertebrate. Particulars: Phytophthora infestans, in Solanum lycopersicum, read-out: disease control rating, Ex. H, 100 PPM. Format: in vivo.

Converted amounts (≈) assume the structure as drawn. Where two headings read alike, the source gives them in different places. Bounds are passed on as bounds.

As to `C=C(c1ccc(F)cc1)C(O)(Cn1cncn1)c1ccc(Cl)c(Cl)c1` (centres unmarked) [Example 651, 2-(3,4-Dichlorophenyl)-3-(4-fluorophenyl)-1-(1H-1,2,4-triazol-1-yl)-3-buten-2-ol], the pest or weed control at 5000 g/ha in assay [1], in [7], in assay [12] and in [14] was 0% throughout. For the same compound, the responders at 150 mg/kg in assay [2] (ATCC11651, 168 h, day 7) turned out to be 100%; in assay [2] (ATCC11651, 336 h, day 14), 50%; in assay [2] (ATCC11651, 504 h, day 21) it was 20%. For the same compound, the pest or weed control at 20 ppm in assay [3] turned out to be 0%; in assay [5], 0%; in [6], 7%; in [8], 67%; in assay [9], 100%; in assay [10] it was 0%. In [15], the pest or weed control at 20 ppm worked out at 67%. Further, the pest or weed control at 100 ppm in [3] amounted to 62%; in [5], 0%; in assay [6] it was 42%; in assay [11] it was 46%; in assay [16], 0%. The results for the MIC in assay [4] and in assay [13] were 0.8 µg/mL (≈ 2.12 µM) and 100 µg/mL (≈ 264 µM), respectively.

`C=C(c1ccc(F)cc1)C(O)(Cn1cncn1)c1ccc(-c2ccccc2)cc1` (centres unmarked) [Example 657]: the pest or weed control at 5000 g/ha in assay [1], in assay [7], in assay [12] and in assay [14] was 0% each time. In addition, the responders at 150 mg/kg turned out to be 0% in assay [2] (ATCC11651, 168 h, day 7); 0% in assay [2] (ATCC11651, 336 h, day 14); 0% in assay [2] (ATCC11651, 504 h, day 21). For the same compound, the pest or weed control at 100 ppm worked out at 97% in assay [3]; 49% in assay [5]; 81% in [6]; 62% in assay [8]; 100% in assay [9]; 100% in [10]. For the same compound, the pest or weed control at 100 ppm in assay [11] came to 37%; in [15], 98%; in assay [16], 24%. Further, the MIC in assay [4] is 0.4 µg/mL (≈ 1.04 µM); in assay [13], 100 µg/mL (≈ 259 µM).

For `C=C(c1ccc(OC)cc1)C(O)(Cn1cncn1)c1ccc(F)cc1` (centres unmarked) [Example 726], the pest or weed control at 5000 g/ha in [1] was found to be 20%; in [7], 0%; in [12], 0%; in assay [14], 0%. Also, the responders at 150 mg/kg was 100% in [2] (ATCC11651, 168 h, day 7); 80% in assay [2] (ATCC11651, 336 h, day 14); 10% in [2] (ATCC11651, 504 h, day 21). Moreover, the pest or weed control at 20 ppm in assay [3] worked out at 0%; in assay [5], 0%; in assay [6], 23%; in assay [8], 75%; in assay [9] it was 100%; in assay [10] it was 0%. Moreover, the pest or weed control at 20 ppm in assay [15] turned out to be 81%. The pest or weed control at 100 ppm turned out to be 0% in assay [3], 0% in assay [5], 38% in assay [11] and 0% in assay [16]. In addition, the MIC in assay [4] was 0.8 µg/mL (≈ 2.36 µM); in assay [13] it was 6.3 µg/mL (≈ 18.6 µM).

For `C=C(c1cccc(Cl)c1)C(O)(Cn1cncn1)c1ccc(Cl)c(Cl)c1` (centres unmarked) [Example 905], the pest or weed control at 5000 g/ha in [1], in assay [7], in assay [12] and in assay [14] was 0% throughout. Further, the responders at 150 mg/kg was 80% in assay [2] (ATCC11651, 168 h, day 7); 50% in assay [2] (ATCC11651, 336 h, day 14); 20% in assay [2] (ATCC11651, 504 h, day 21). The pest or weed control at 20 ppm in [3] was found to be 0%; in [5], 0%; in assay [6], 15%; in [8], 7%; in assay [9], 16%; in assay [10], 0%. In addition, in assay [15], the pest or weed control at 20 ppm worked out at 47%. In addition, the pest or weed control at 100 ppm in assay [3] is 37%; in [5] it was 0%; in [6], 19%; in assay [11] it was 87%; in assay [16] it was 0%. In addition, the minimal inhibitory concentration (MIC) in [4] amounted to 0.04 µg/mL (≈ 0.101 µM); in assay [13], 100 µg/mL (≈ 253 µM).

As for `C=C(c1ccccc1)C(O)(Cn1ncnc1S)c1ccc(F)cc1` (centres unmarked) [Example 1278], the pest or weed control at 5000 g/ha in assay [1], in assay [7], in assay [12] and in [14] was 0% each time. Further, the responders at 150 mg/kg in assay [2] (ATCC11651, 168 h, day 7) worked out at 0%; in [2] (ATCC11651, 336 h, day 14), 0%; in [2] (ATCC11651, 504 h, day 21), 0%. For the same compound, the pest or weed control at 100 ppm in [3] amounted to 36%; in assay [5], 17%; in assay [6], 87%; in assay [8], 100%; in [9], 100%; in assay [10], 100%. For the same compound, the pest or weed control at 100 ppm in [11] was found to be 16%; in assay [15], 85%; in [16], 0%. Also, the minimal inhibitory concentration (MIC) in [4] is at most 0.4 µg/mL; in [13] it was over 100 µg/mL.
